According to article PMC9127750, “Structure-based design of CDC42 effector interaction inhibitors for the treatment of cancer” (Cell reports, 2022):
Several values for one entry are separate records, joined by “and”; a condition that tells them apart may be missing. Equal values may be shown once.

System: WM3248 melanoma cells, 486 antibodies
Assay: Reverse phase protein arrays (RPPA);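 for CREB pS133.R.C RPPA level: ratio of treated to vehicle (0 µM) normalized linear protein signal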;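 for Cyclin.B1.R.V RPPA level: ratio of treated to vehicle (0 µM) normalized linear protein signal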;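 for Cyclin.E1.R.V RPPA level: ratio of treated to vehicle (0 µM) normalized linear protein signal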;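 for DDB.1.R.V RPPA level: ratio of treated to vehicle (0 µM) normalized linear protein signal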
Type: cell-based, Human
Details: 10 uM
Text: Pellets were snap frozen in liquid nitrogen and shipped to MD Anderson Cancer Center core RPPA facility for RPPA analysis (Table S5). Three biological replicates for each sample were generated.
Nomenclatures on the RPPA heatmaps: name_of_antibody.species_of_antibody.status_of_antibody. V - antibody validated; C - validation of antibody in progress; Q - antibody nonspecific; E – under evaluation; antibodies raised in M - mouse, G - goat, R - rabbit, or T - rat.

Structure (SMILES): CN(C)c1cccc(Nc2cc(-c3ccccc3)nc(C3CCNCC3)n2)c1 [ARN22089, N1,N1-dimethyl-N3-(6-phenyl-2-(piperidin-4-yl)pyrimidin-4-yl)benzene-1,3-diamine]
- CENP.A.R.V RPPA level (replicates): 1.151 and 1.005 and 0.894
- CHD1L.R.V RPPA level (replicates): 1.053 and 0.975
- CIITA.R.C RPPA level (replicates): 0.943
- COG3.R.V RPPA level (replicates): 1.004 and 1.123 and 1.059
- CRABP1.R.C RPPA level (replicates): 1.020 and 1.132 and 0.998
- CRABP2.R.V RPPA level (replicates): 1.116 and 1.191 and 0.898
- CREB_pS133.R.C RPPA level (replicates): 1.215 and 1.129 and 1.046
- CSK.R.C RPPA level (replicates): 1.016 and 1.050
- Calnexin.R.V RPPA level (replicates): 1.054 and 1.062 and 1.021
- Caspase.3.cleaved.R.C RPPA level (replicates): 0.914 and 0.955 and 0.964
- Caspase.7.cleaved..R.C RPPA level (replicates): 0.854 and 1.203 and 0.935
- Caspase.8.M.Q RPPA level (replicates): 0.939 and 0.985 and 0.948
- Caspase.8.cleaved.R.C RPPA level (replicates): 1.012 and 1.005
- Caveolin.1.R.V RPPA level (replicates): 0.511 and 0.968 and 1.344
- Cdc6.R.V RPPA level (replicates): 1.149 and 0.959 and 0.806
- Cdc42.R.C RPPA level (replicates): 0.879 and 1.031 and 1.047
- Chk1.M.C RPPA level (replicates): 0.982
- Chk1_pS296.R.V RPPA level (replicates): 1.083 and 1.109 and 1.035
- Chk1_pS345.R.C RPPA level (replicates): 1.079 and 0.892
- Chk2.M.V RPPA level (replicates): 1.081 and 1.018 and 0.980
- Chk2_pT68.R.C RPPA level (replicates): 1.106 and 0.986
- Claudin.7.R.V RPPA level (replicates): 1.024 and 1.518
- Collagen.VI.R.V RPPA level (replicates): 1.360 and 0.732 and 0.984
- Complex.II.Subunit.M.V RPPA level (replicates): 0.942 and 1.064
- Connexin.43.R.C RPPA level (replicates): 1.028 and 1.053 and 1.013
- Coup.TFII.R.C RPPA level (replicates): 0.805 and 0.957 and 0.905
- Cox2.R.C RPPA level (replicates): 0.926
- Cox.IV.R.V RPPA level (replicates): 0.954 and 1.028 and 0.879
- Creb.R.C RPPA level (replicates): 0.985 and 0.987 and 0.986
- CtIP.R.V RPPA level (replicates): 0.811 and 0.959 and 1.049
- Cyclin.B1.R.V RPPA level (replicates): 1.215 and 0.558 and 1.046
- Cyclin.D1.R.C RPPA level (replicates): 1.058 and 1.030
- Cyclin.D3.M.V RPPA level (replicates): 1.147 and 1.027 and 0.999
- Cyclin.E1.R.V RPPA level (replicates): 1.052 and 1.061 and 0.904
- D.a.Tubulin.R.V RPPA level (replicates): 0.843 and 1.062 and 1.022
- DAPK1_pS308.M.C RPPA level (replicates): 1.219 and 0.875
- DAPK2.R.C RPPA level (replicates): 0.896 and 0.971
- DDB.1.R.V RPPA level (replicates): 0.816 and 0.798 and 0.956
- DDR1.R.V RPPA level (replicates): 1.205 and 0.959 and 0.921
- DDR1_pY513.R.C RPPA level (replicates): 1.134 and 1.079 and 0.941
- DJ1.R.V RPPA level (replicates): 0.977 and 1.030
- DM.Histone.H3.R.V RPPA level (replicates): 0.923 and 0.956 and 0.905
- DM.K9.Histone.H3.M.V RPPA level (replicates): 1.060 and 1.027
- DNA.Ligase.IV.R.C RPPA level (replicates): 0.876 and 1.063
- DNA_POLG.R.V RPPA level (replicates): 1.161 and 1.030 and 0.850
- c.Jun_pS73.R.V RPPA level (replicates): 0.892 and 1.231 and 0.915
- c.Kit.R.V RPPA level (replicates): 1.223 and 0.923 and 0.946
- c.Met_pY1234_Y1235.R.V RPPA level (replicates): 0.927 and 0.979
- c.Myc.R.C RPPA level (replicates): 0.990 and 1.949 and 1.062
- cGAS.R.V RPPA level (replicates): 1.123 and 1.204 and 1.015
- cdc2_pY15.R.C RPPA level (replicates): 1.056 and 0.933
- cdc25C.R.V RPPA level (replicates): 0.773 and 0.805 and 1.120
- RPPA MYH11.R.C (single replicates): 1.100 and 1.584
- RPPA Myosin.IIa.R.C (single replicates): 0.877 and 0.781 and 1.164
- RPPA Myosin.IIa_pS1943.R.V (single replicates): 0.954 and 0.844 and 1.268
- RPPA Myt1.R.C (single replicates): 0.886 and 0.984 and 1.096
- RPPA N.Cadherin.R.V (single replicates): 1.097 and 1.063 and 1.030
- RPPA N.Ras.M.V (single replicates): 0.953 and 0.958 and 1.062
- RPPA NAPSIN.A.R.C (single replicates): 0.999 and 1.048
- RPPA NDRG1_pT346.R.V (single replicates): 0.798 and 1.051 and 1.195
- RPPA NDUFB4.R.V (single replicates): 1.112 and 1.008 and 0.987
- RPPA NRF2.R.C (single replicates): 1.131 and 0.925 and 0.932
- RPPA Notch1.R.V (single replicates): 1.065 and 1.124 and 1.005
- RPPA Notch1.cleaved.R.V (single replicates): 0.792 and 0.886 and 1.098
- RPPA Notch3.R.C (single replicates): 1.065 and 1.230 and 1.000
- RPPA Oct.4.R.C (single replicates): 0.909
- RPPA P.Cadherin.R.C (single replicates): 1.001 and 0.968
- RPPA PAI.1.M.V (single replicates): 0.919 and 0.946
- RPPA PAICS.R.C (single replicates): 0.926 and 0.836 and 0.997
- RPPA PAK1.R.V (single replicates): 0.749 and 1.057 and 1.078
- RPPA PAK4.R.V (single replicates): 1.101 and 1.108 and 0.979
- RPPA PAK_pS474_S602_S560.R.V (single replicates): 1.125 and 1.130 and 1.000
- RPPA PAK_pT423_T402.R.C (single replicates): 1.141 and 0.908
- RPPA PAR.R.C (single replicates): 0.306 and 0.831 and 0.304
- RPPA PARG.R.C (single replicates): 0.976 and 1.013 and 0.921
- RPPA PARP.R.V (single replicates): 1.079 and 0.890 and 1.083
- RPPA PAX6.R.V (single replicates): 0.992 and 1.020 and 0.997
- RPPA PAX8.R.C (single replicates): 1.133 and 1.022 and 0.978
- RPPA PCNA.M.C (single replicates): 0.928 and 1.013 and 1.020
- RPPA PD.1.R.V (single replicates): 1.076 and 1.064 and 1.035
- RPPA PD.L1.R.C (single replicates): 0.845 and 1.047
- RPPA PDH.M.V (single replicates): 1.032 and 1.047 and 1.014
